Where “and” joins values, the source holds several entries; their conditions need not be identical. Identical values can stand only once.
Experiment: Extrapolated human dosimetry (OLINDA/EXM, ICRP-89 phantoms)
Method: To address inter-animal variability, the TIACs for each source organ were calculated from both the mean nTACs and the nTACs obtainend from fitting the mean ± 1 standard deviation (SD) of the normalized time-activity data, providing upper and lower bounds.
The mice-to-human TIAC extrapolation accounted for species-specific differences in relative source organ masses, m(organ), as compared to the total body weight (WB), for the mice (m) and human (h) models respectively.
(§1) The human organ masses, m(organ)h, were obtained from ICRP-89 adult male and female reference phantoms, while the murine organ masses, m(organ)m, were derived from the standard MOBY mouse model. The extrapolated human TIACs, TIACh were entered in the OLINDA/EXM software to compute the absorbed doses to target organs and the effective dose for adult male, female, and gender-averaged human models. […]
The TIACs, for [177Lu]Lu-DOTAGA.Glu.(FAPI)2 and [177Lu]Lu-DO3A.Glu.(FAPI)2, were determined by time integration of the nTACs. To account for the inter-animal variability, the TIACs for each source organ were calculated using both the mean nTACs and the nTACs obtainend from fitting the mean ±1 standard deviation (SD) of the normalized time-activity data. This approach provided the upper and the lower bounds for the estimated TIACs.
The mice-to-human TIAC extrapolation was obtained considering the different (species-specific) relative source organ masses, m(organ), as compared to the total body weight (WB), for the mice (m) and human (h) models respectively.
as §1, with “the” for “ICRP-89”, “models phantoms defined in ICRP-89,” for “phantoms,”, “TIACs values, TIACh, for each source organ” for “TIACs, TIACh”, “input into the kinetic module of” for “entered in”, “software (version 2.1, HERMES Medical Solutions AB, Stockholm, Sweden)” for “software”

[1] = ICRP 89 Adult Female, extrapolated
[2] = ICRP 89 Adult Male, extrapolated

## N#C[C@@H]1CC(F)(F)CN1C(=O)CNC(=O)c1ccnc2ccc(OCCCCNC(=O)CC[C@H](NC(=O)CCC(C(=O)O)N3CCN(CC(=O)[O-])CCN(CC(=O)[O-])CCN(CC(=O)[O-])CC3)C(=O)NCCCCOc3ccc4nccc(C(=O)NCC(=O)N5CC(F)(F)C[C@H]5C#N)c4c3)cc12.[161Tb+3] (stereo partly drawn) [[^161Tb]Tb-DOTAGA.Glu.(FAPI)2]
[1]
  Absorbed dose (AD average) Adrenals: 2.06E-02 mGy/Mbq
  Absorbed dose (AD average) Brain: 4.11E-02 mGy/Mbq
  Absorbed dose (AD average) Breasts: 3.94E-02 mGy/Mbq
  Absorbed dose (AD average) Esophagus: 4.21E-02 mGy/Mbq
  Absorbed dose (AD average) Eyes: 4.11E-02 mGy/Mbq
  Absorbed dose (AD average) Gallbladder Wall: 4.47E-02 mGy/Mbq
  Absorbed dose (AD average) Heart Wall: 6.03E-02 mGy/Mbq
  Absorbed dose (AD average) Kidneys: 6.83E-02 ± 0.003 mGy/Mbq and 6.83E-02 mGy/Mbq
  Absorbed dose (AD average) Left colon: 4.20E-02 mGy/Mbq
  Absorbed dose (AD average) Liver: 2.78E-01 ± 0.02 mGy/Mbq and 2.78E-01 mGy/Mbq
  Absorbed dose (AD average) Lungs: 6.37E-02 ± 0.01 mGy/Mbq and 6.37E-02 mGy/Mbq
  Absorbed dose (AD average) Osteogenic Cells: 1.23E-01 ± 0.01 mGy/Mbq and 1.23E-01 mGy/Mbq
  Absorbed dose (AD average) Ovaries: 4.17E-02 mGy/Mbq
  Absorbed dose (AD average) Pancreas: 5.34E-02 ± 0.003 mGy/Mbq and 5.34E-02 mGy/Mbq
  Absorbed dose (AD average) Rectum: 4.17E-02 mGy/Mbq
  Absorbed dose (AD average) Red Marrow: 4.59E-02 ± 0.01 mGy/Mbq and 4.59E-02 mGy/Mbq
  Absorbed dose (AD average) Right colon: 4.24E-02 mGy/Mbq
  Absorbed dose (AD average) Salivary Glands: 1.73E-01 ± 0.01 mGy/Mbq and 1.73E-01 mGy/Mbq
  Absorbed dose (AD average) Small Intestine: 4.17E-02 mGy/Mbq
  Absorbed dose (AD average) Spleen: 4.83E-02 ± 0.01 mGy/Mbq and 4.83E-02 mGy/Mbq
  Absorbed dose (AD average) Stomach Wall: 4.21E-02 mGy/Mbq
  Absorbed dose (AD average) Thymus: 4.16E-02 mGy/Mbq
  Absorbed dose (AD average) Thyroid: 4.05E-02 mGy/Mbq
  Absorbed dose (AD average) Total Body: 6.01E-02 ± 0.01 mGy/Mbq and 6.01E-02 mGy/Mbq
  Absorbed dose (AD average) Urinary Bladder Wall: 4.10E-02 mGy/Mbq
  Absorbed dose (AD average) Uterus: 4.14E-02 mGy/Mbq
  Effective dose (average): 5.28E-02
[2]
  Absorbed dose (AD average) Adrenals: 1.63E-02 mGy/Mbq
  Absorbed dose (AD average) Brain: 2.76E-02 mGy/Mbq
  Absorbed dose (AD average) Esophagus: 2.88E-02 mGy/Mbq
  Absorbed dose (AD average) Eyes: 2.76E-02 mGy/Mbq
  Absorbed dose (AD average) Gallbladder Wall: 3.50E-02 mGy/Mbq
  Absorbed dose (AD average) Heart Wall: 5.00E-02 mGy/Mbq
  Absorbed dose (AD average) Kidneys: 5.60E-02 ± 0.002 mGy/Mbq and 5.60E-02 mGy/Mbq
  Absorbed dose (AD average) Left colon: 1.18E-01 mGy/Mbq
  Absorbed dose (AD average) Liver: 2.29E-01 ± 0.02 mGy/Mbq and 2.29E-01 mGy/Mbq
  Absorbed dose (AD average) Lungs: 5.19E-02 ± 0.004 mGy/Mbq and 5.19E-02 mGy/Mbq
  Absorbed dose (AD average) Osteogenic Cells: 1.24E-01 ± 0.01 mGy/Mbq and 1.24E-01 mGy/Mbq
  Absorbed dose (AD average) Pancreas: 4.25E-02 ± 0.002 mGy/Mbq and 4.25E-02 mGy/Mbq
  Absorbed dose (AD average) Prostate: 2.77E-02 mGy/Mbq
  Absorbed dose (AD average) Rectum: 1.17E-01 mGy/Mbq
  Absorbed dose (AD average) Red Marrow: 3.37E-02 ± 0.003 mGy/Mbq and 3.37E-02 mGy/Mbq
  Absorbed dose (AD average) Right colon: 7.38E-02 mGy/Mbq
  Absorbed dose (AD average) Salivary Glands: 1.43E-01 ± 0.01 mGy/Mbq and 1.43E-01 mGy/Mbq
  Absorbed dose (AD average) Small Intestine: 5.69E-02 ± 0.02 mGy/Mbq and 5.69E-02 mGy/Mbq
  Absorbed dose (AD average) Spleen: 3.92E-02 ± 0.01 mGy/Mbq and 3.92E-02 mGy/Mbq
  Absorbed dose (AD average) Stomach Wall: 4.15E-02 mGy/Mbq
  Absorbed dose (AD average) Testes: 2.65E-02 mGy/Mbq
  Absorbed dose (AD average) Thymus: 2.77E-02 mGy/Mbq
  Absorbed dose (AD average) Thyroid: 2.76E-02 mGy/Mbq
  Absorbed dose (AD average) Total Body: 4.51E-02 ± 0.01 mGy/Mbq and 4.51E-02 mGy/Mbq
  Absorbed dose (AD average) Urinary Bladder Wall: 2.75E-02 mGy/Mbq
ICRP 89 Adult Male, extrapolated, in mSv/MBq (unit assumed)
  Effective dose (average): 4.69E-02
Human extrapolation, average over tissues
  higher tissue doses vs. the 177Lu-labeled analogs: ~ 38%
